# Data from publication PMC5157691 (Research and reports in biochemistry, 2016).
# “Also recorded” adds a separate entry of the source. Like-named read-outs stand apart in the source and are kept apart here. Ends that are not written are not given here.
# Legend:
# Mac-1-HEK293 cells [1] = format: cell-based, human
# [2] = tested on: peritoneal mouse macrophages; settings: LL-37 10 μg/ml, 1 μm beads, beads:cells 10:1, 30 min at 37 °C
# murine macrophages = settings: opsonization with LL-37; cited from earlier work
# Salmonella = assay: Binding density of 125I-LL-37-GY on Salmonella; settings: 5 μg/ml 125I-LL-37-GY, 20 min at 22 °C
# αMI-domain [3] = settings: cited from earlier work
# macrophages [4] = assay: Phagocytosis of bacteria by macrophages; format: cell-based
# [5] = tested on: adherent IC-21 macrophages; settings: LL-37 5 μg/ml, S. aureus, 60 min at 37 °C
# neutrophils = settings: cited from earlier work
# IC-21 macrophages [6] = settings: LL-37 10 μg/ml, 1 μm beads, beads:cells 10:1, 30 min at 37 °C
# leukocytes = settings: soluble LL-37; cited from earlier work
# Mac-1-HEK293 cells [7] = assay: Spreading of Mac-1-HEK293 cells on LL-37; format: cell-based, human; settings: slides coated with LL-37, 30 min at 37 °C
# rodents = settings: LL-37 injection; cited from earlier work
# [8] = tested on: Mac-1-deficient macrophages; assay: Phagocytosis of latex beads by Mac-1-deficient peritoneal macrophages; format: cell-based, mouse; settings: LL-37-coated beads, 30 min at 37 °C
# Human neutrophils [9] = settings: cited from earlier work
# [10] = tested on: adherent IC-21 macrophages; settings: LL-37 5 μg/ml, E. coli, 60 min at 37 °C
# wild-type macrophages = assay: Phagocytosis of latex beads by wild-type peritoneal macrophages; format: cell-based, mouse
# wild-type HEK293 cells [11] = assay: Spreading of wild-type HEK293 cells on LL-37; format: cell-based, human; settings: 30 min at 37 °C
# U937 cells = assay: Adhesion of U937 monocytic cells to immobilized LL-37; format: cell-based, human; settings: data not shown
# [12] = tested on: adherent murine peritoneal macrophages; assay: Phagocytosis of E. coli and S. aureus by adherent murine peritoneal macrophages; format: cell-based; settings: LL-37 5 μg/ml, 60 min at 37 °C
# [13] = tested on: human peripheral blood monocytes, neutrophils and T cells; settings: cited from earlier work
# IC-21 macrophages [14] = assay: Adhesion of IC-21 macrophages to immobilized peptide; format: cell-based, murine; settings: in words; Fig. 4A shown for K18-37
# human THP-1 cells = settings: LL-37 10 μg/ml, 1 μm beads, beads:cells 10:1, 30 min at 37 °C
# monocyte and macrophages = settings: cited from earlier work
# αMI-domain [15] = settings: surface plasmon resonance and biolayer interferometry; cited from earlier work
# bacteria = settings: bacterial killing in physiologically relevant buffers; cited from earlier work
# primary human monocytes = settings: compared to uncoated beads; cited from earlier work
# Mac-1-HEK293 cells [16] = assay: Adhesion of Mac-1-HEK293 cells to immobilized peptide; format: cell-based, human
# wild-type HEK293 cells [17] = assay: Adhesion of wild-type HEK293 cells to immobilized LL-37; format: cell-based, human
# macrophages [18] = settings: pretreatment of macrophages with LL-37; cited from earlier work
# Human neutrophils [19] = settings: cited from earlier work; remark: listed apart in the source
# mammalian cells = settings: LL-37 10 μg/ml; data not shown
# IC-21 macrophages [20] = assay: Inhibition of IC-21 macrophage adhesion to immobilized K18-37; format: cell-based, murine; settings: K18-37 coating 0.5 μg/ml; heparin 20 μg/ml; mean ± S.E. from 5-6 experiments
# wild-type HEK293 cells [21] = assay: Inhibition of wild-type HEK293 cell adhesion to immobilized LL-37; format: cell-based, human; settings: heparin 20 μg/ml, all coating concentrations of LL-37
# Mac-1 = settings: cited from earlier work
# [22] = tested on: U937, IC-21 and erythrocytes; assay: Binding density of 125I-LL-37-GY on mammalian cells; settings: 5 μg/ml 125I-LL-37-GY; U937, IC-21 and erythrocytes vs tested bacteria
# [23] = Binding of 125I-LL-37-GY to latex beads; settings: 10 μg/ml 125I-labeled LL-37-GY; preliminary experiments
# Mac-1-HEK293 cells [24] = assay: Inhibition of Mac-1-HEK293 cell adhesion to immobilized LL-37; format: cell-based, human
molecule,measurement,setting,value
KRIVQRIKDFLRNLVPRTES [K18-37],IC50 for inhibition of cell adhesion to fibrinogen,Mac-1-HEK293 cells [1]; 3 h,6 µg/mL
LLGDFFRKSKEKIGKEFKRIVQRIKDFLRNLVPRTES [LL-37],fold augmentation of bead uptake,[2],~4.5 fold
same,phagocytosis,murine macrophages,increased phagocytosis by murine macrophages
same,binding relative to E. coli (fold less),Salmonella,1.8 fold
same,binding to Salmonella relative to mammalian cells (fold higher),Salmonella,~ 17 fold
same,αMI-domain binding,αMI-domain [3],binds the αMI-domain
same,phagocytosis of bacteria,"macrophages [4]; Gram-negative and Gram-positive bacteria coated with LL-37, abstract",significantly potentiated their phagocytosis
same,concentration found to enhance bacterial phagocytosis,macrophages [4]; summary in discussion,1 to 5 µg/mL
same,fold increase of phagocytosis,[5],~10 fold
same,neutrophil activation,neutrophils,activates Mac-1 on the surface of neutrophils
same,fold augmentation of bead uptake,IC-21 macrophages [6],~ 3.5 fold
same,concentration affecting membrane integrity of leukocytes,leukocytes,> 50 µg/mL
same,cell spreading,Mac-1-HEK293 cells [7],spread in a concentration-dependent manner with the formation of stress fibers
same,protection from septic death,rodents,protects rodents from septic death
same,enhancement of bead uptake,[8],failed to augment phagocytosis of beads
same,apoptosis,Human neutrophils [9],delayed apoptosis
same,fold increase of phagocytosis,[10],~ 17 fold
same,enhancement of bead uptake,"wild-type macrophages; LL-37-coated beads, 30 min at 37 °C, three experiments in triplicate",~ 5 times
same,enhancement of bead uptake,"wild-type macrophages; LL-37-coated vs untreated beads, abstract",several fold higher than that of untreated beads
same,cell spreading,wild-type HEK293 cells [11]; LL-37 coating 2 μg/ml,spread at higher LL-37 concentrations
same,cell spreading,wild-type HEK293 cells [11]; LL-37 coating 0.2-1.0 μg/ml,remained round
same,adhesion of U937 cells,U937 cells,adhered to LL-37 in a concentration-dependent manner
same,phagocytosis,[12],increased phagocytosis
same,chemotactic effect,[13],chemotactic effect
same,adhesion of IC-21 macrophages,IC-21 macrophages [14],strongly adhered
same,fold augmentation of bead uptake,human THP-1 cells,~6 fold
same,induction of migration,monocyte and macrophages,induces a potent migratory response of Mac-1-expressing monocytes and macrophages; also recorded: induced Mac-1-dependent migration of monocyte and macrophages
same,interaction with αMI-domain,αMI-domain [15],The interaction of the αMI-domain with LL-37 also was recently reported
same,minimal inhibitory concentration,bacteria,30 to 100 µg/mL
same,uptake of LL-37-coated beads,primary human monocytes,increased compared to uncoated beads
same,adhesion (percent of added cells),"Mac-1-HEK293 cells [16]; LL-37 coating 2 μg/ml, 30 min at 37 °C, calcein fluorescence, n=6",52 ± 5%
same,coating concentration for saturable adhesion,"Mac-1-HEK293 cells [16]; Mac-1-HEK293, 30 min at 37 °C",2 µg/mL
same,adhesion supported by peptide,Mac-1-HEK293 cells [16]; in words,supported strong adhesion; also recorded: supported efficient adhesion
same,adhesion of wild-type HEK293 cells,wild-type HEK293 cells [17]; LL-37 coating 0-1.0 μg/ml,no adhesion
same,adhesion of wild-type HEK293 cells,wild-type HEK293 cells [17]; LL-37 coating 1-4 μg/ml,"supported adhesion of wild-type HEK293 cells; however, maximal adhesion did not reach the level attained with Mac-1-HEK293 cells"
same,bacterial phagocytosis,macrophages [18],augmented by pretreatment of macrophages
same,production of reactive oxygen species,Human neutrophils [19],increase the production of reactive oxygen species
same,calcein leakage relative to background of control untreated cells,mammalian cells,~ 3 fold
DIDPKLKWD [reference compound],inhibition of cell adhesion to fibrinogen,"Mac-1-HEK293 cells [1]; control peptide, fibrinogen coated at 2.5 μg/ml, 15 min at 22 °C",inactive
heparin,inhibition of adhesion to K18-37,IC-21 macrophages [20],25 ± 13%
same,inhibition of adhesion of wild-type HEK293 cells,wild-type HEK293 cells [21],strong inhibitor of adhesion
"FKRIVQRIKDFLR [FK-13, reference compound]",interaction with αMI-domain,αMI-domain [15],no interaction
dynorphin A,phagocytosis,Mac-1,enhance phagocytosis
same,phagocytosis,"Mac-1; opsonization, through Mac-1",opsonizes bacteria and promotes phagocytosis through Mac-1
"LL-37-GY: LL-37 containing two additional C-terminal residues Gly-Tyr (LLGDFFRKSKEKIGKEFKRIVQRIKDFLRNLVPRTESGY; also: 125I label, place not given here)",binding compared with bacteria,[22],bound significantly less
same,binding density on beads,[23],10.6±1.3 fg/μm^2
"NIF: neutrophil inhibitory factor, a specific inhibitor of the αMI-domain-ligand interactions (protein) NEHNLRCPQNGTEMPGFNDSIRLQFLAMHNGYRSKLALGHISITEESESDDDDDFGFLPDFAPRASKMRYLEYDCEAEKSAYMSARNCSDSSSPPEGYDENKYIFENSNNISEAALKAMISWAKEAFNLNKTKEGEGVLYRSNHDISNFANLAWDAREKFGCAVVNCPLGEIDDETNHDGETYATTIHVVCHYPKINKTEGQPIYKVGTPCDDCSEYTKKADNTTSADPVCIPDDGVCFIGSKADYDSKEFYRFREL",inhibition of adhesion,"Mac-1-HEK293 cells [24]; LL-37 coating high (2 μg/ml or ≥2 μg/ml), inhibitor preincubated 15 min at 22 °C",but not high (≥2 μg/ml) concentrations
same,"inhibition of cell adhesion to LL-37 (summary, words)","Mac-1-HEK293 cells [24]; abstract, various Mac-1-expressing cells",partially inhibited
